Data published in patent publication US10093623B2, “Cyclic amides as MetAP-2 inhibitors” (MERCK PATENT GmbH, priority 2012, dated 2018).

Biological target: MetAP-2 (Homo sapiens, UniProt P50579)
Experiment: MetAP-2 activity measurement (coupled enzymatic reactions, Met-Arg-Ser substrate, dianisidine detection at 450 nm)
Assay type: biochemical
Conditions: Inhibition of MetAP-2; read-out: IC50 enzyme
In short: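 Coupled continuous assay with Met-Arg-Ser tripeptide substrate: released methionine oxidised by L-amino acid oxidase to give H2O2, which peroxidase uses to oxidise dianisidine, followed at 450 nm. Activity taken as slope of absorbance versus time over the visually linear region; dianisidine extinction coefficient converts to mol Met per time.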

MetAP-2, sequence (P50579 whole entry, species assumed): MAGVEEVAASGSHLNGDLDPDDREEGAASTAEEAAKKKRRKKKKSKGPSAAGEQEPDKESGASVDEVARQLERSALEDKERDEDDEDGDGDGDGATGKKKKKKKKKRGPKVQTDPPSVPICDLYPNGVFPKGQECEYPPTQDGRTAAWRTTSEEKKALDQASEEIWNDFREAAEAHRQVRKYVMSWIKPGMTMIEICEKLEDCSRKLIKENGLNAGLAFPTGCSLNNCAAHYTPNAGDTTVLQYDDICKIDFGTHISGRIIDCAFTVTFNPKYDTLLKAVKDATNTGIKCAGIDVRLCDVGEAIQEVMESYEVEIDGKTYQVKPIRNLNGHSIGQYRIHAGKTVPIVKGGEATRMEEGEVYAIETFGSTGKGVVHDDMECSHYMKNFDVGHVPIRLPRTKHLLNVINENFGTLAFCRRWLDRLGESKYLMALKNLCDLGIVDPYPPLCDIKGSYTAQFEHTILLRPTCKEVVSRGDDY

Structure (SMILES) | IC50 [nM]
O=C(NCc1ccc(F)cc1)C1(O)CCCN(Cc2ccc(F)c(F)c2)C1=O (centres unmarked) [A257, N-(4-Fluorobenzyl)-1-(3,4-difluorobenzyl)-3-hydroxy-2-oxo-piperidine-3-carboxamide] | 1000 to 10000
Cc1cc(CNC(=O)C2(O)CCCN(Cc3ccc(F)c(F)c3)C2=O)no1 (centres unmarked) [A258, N-(5-Methylisoxazol-3-ylmethyl)-1-(3,4-difluorobenzyl)-3-hydroxy-2-oxopiperidine-3-carboxamide] | > 10000
O=C(NCc1ccccn1)[C@@]1(O)CCCN(Cc2cccc(F)c2F)C1=O [A259, N-(Pyridin-2-ylmethyl)-(S)-1-(2,3-difluorobenzyl)-3-hydroxy-2-oxopiperidine-3-carboxamide] | > 10000
O=C(NCc1ccccn1)[C@]1(O)CCCN(Cc2cccc(F)c2F)C1=O [A260, N-(Pyridin-2-ylmethyl)-(R)-1-(2,3-difluorobenzyl)-3-hydroxy-2-oxopiperidine-3-carboxamide] | > 10000
O=C(NCc1cccc(F)c1)[C@]1(O)CCCN(Cc2cccc(F)c2F)C1=O [A261, N-(3-Fluorobenzyl)-(R)-1-(2,3-difluorobenzyl)-3-hydroxy-2-oxo-piperidine-3-carboxamide] | > 10000
O=C(NCc1ccc(F)cc1)[C@]1(O)CCCN(Cc2cccc(F)c2F)C1=O [A262, N-(4-Fluorobenzyl)-(R)-1-(2,3-difluorobenzyl)-3-hydroxy-2-oxo-piperidine-3-carboxamide] | > 10000
O=C(NCc1cccc(F)c1)[C@]1(O)CCCN(CC2CCCCC2)C1=O [A263, N-(3-fluorobenzyl)-(R)-1-cyclohexylmethyl-3-hydroxy-2-oxopiperidine-3-carboxamide] | > 10000
O=C1CCc2cc(N3CC[C@](O)(C(=O)NCc4ccc(Cl)c(F)c4)C3=O)ccc2N1 [A265, N-(4-Chloro-3-fluorobenzyl)-(S)-3-hydroxy-2-oxo-1-(2-oxo-1,2,3,4-tetrahydroquinolin-6-yl)-pyrrolidine-3-carboxamide] | 1000 to 10000
O=C(N1Cc2ccccc2C1)C1(O)CCN(c2ccccc2)C1=O (centres unmarked) [A267, 3-(1,3-dihydroisoindole-2-carbonyl)-3-hydroxy-1-phenylpyrrolidin-2-one] | 1000 to 10000
O=C1N(Cc2ccccc2)CCC1(O)C(=O)N1Cc2ccccc2C1 (centres unmarked) [A268, 1-benzyl-3-(1,3-dihydroisoindole-2-carbonyl)-3-hydroxypyrrolidin-2-one] | > 10000
O=C(NCc1cc(F)cc(Cl)c1)C1(O)CCN(Cc2nc3ccccc3[nH]2)C1=O (centres unmarked) [A269, N-(3-chloro-5-fluorobenzyl)-1-(1H-benzimidazol-2-ylmethyl)-3-hydroxy-2-oxopyrrolidine-3-carboxamide] | 1000 to 10000
O=C(O)CCN1CCC(O)(C(=O)NCc2cc(F)cc(Cl)c2)C1=O (centres unmarked) [A271, 3-[3-(3-Chloro-5-fluorobenzylcarbamoyl)-3-hydroxy-2-oxopyrrolidin-1-yl]-propionic acid] | > 10000
Cn1cncc1CN1CCC(O)(C(=O)NCc2cc(F)cc(Cl)c2)C1=O (centres unmarked) [A272, N-(3-Chloro-5-fluorobenzyl)-3-hydroxy-1-(3-methyl-3H-imidazol-4-ylmethyl)-2-oxo-pyrrolidine-3-carboxamide] | 1000 to 10000
O=C(NCc1cc(F)cc(Cl)c1)C1(O)CCN(C[C@H]2CC[C@H](C(=O)O)CC2)C1=O (some centres unmarked) [A273, 4-[3-(3-Chloro-5-fluorobenzylcarbamoyl)-3-hydroxy-2-oxopyrrolidin-1-yl-methyl]cyclohexanecarboxylic acid] | 1000 to 10000
O=C(NCc1cc(F)cc(Cl)c1)C1(O)CCN(C[C@H]2CC[C@@H](C(=O)O)CC2)C1=O (some centres unmarked) [A274, 4-[3-(3-Chloro-5-fluorobenzylcarbamoyl)-3-hydroxy-2-oxopyrrolidin-1-yl-methyl]cyclohexanecarboxylic acid] | 1000 to 10000
CCN1C[C@@H]2[C@H](C1)[C@H]2N1CCC(O)(C(=O)NCc2cc(F)cc(Cl)c2)C1=O (stereo partly drawn) [A275, N-(3-Chloro-5-fluorobenzyl)-1-((1S,5R,6S)-3-ethyl-3-aza-bicyclo[3.1.0]hex-6-yl)-3-hydroxy-2-oxopyrrolidine-3-carboxamide] | > 10000
Cn1nccc1CN1CCC(O)(C(=O)NCc2cc(F)cc(Cl)c2)C1=O (centres unmarked) [A276, N-(3-Chloro-5-fluorobenzyl)-3-hydroxy-1-(2-methyl-2H-pyrazol-3-ylmethyl)-2-oxopyrrolidine-3-carboxamide] | 1000 to 10000

The next lines start with the values.

IC50 [nM] | Structure (SMILES)
10 to 1000 | O=C1CCc2cc(N3CC[C@](O)(C(=O)NCc4cc(F)c(F)cc4Cl)C3=O)ccc2N1 [A234, N-(2-Chloro-4,5-difluorobenzyl)-(S)-3-hydroxy-2-oxo-1-(2-oxo-1,2,3,4-tetrahydroquinolin-6-yl)-pyrrolidine-3-carboxamide]
10 to 1000 | O=C1CCc2cc(N3CC[C@](O)(C(=O)NCc4cc(Cl)c(F)cc4F)C3=O)ccc2N1 [A235, N-(5-Chloro-2,4-difluorobenzyl)-(S)-3-hydroxy-2-oxo-1-(2-oxo-1,2,3,4-tetrahydroquinolin-6-yl)-pyrrolidine-3-carboxamide]
10 to 1000 | O=C1CCc2cc(N3CC[C@](O)(C(=O)NCc4c(F)cc(F)cc4F)C3=O)ccc2N1 [A236, N-(2,4,6-Trifluorobenzyl)-(S)-3-hydroxy-2-oxo-1-(2-oxo-1,2,3,4-tetrahydroquinolin-6-yl)-pyrrolidine-3-carboxamide]
1000 to 10000 | O=C(NCc1cc(F)cc(Cl)c1)C1(O)CCN(CCc2ccc(F)cc2F)C1=O (centres unmarked) [A237, N-(3-Chloro-5-fluorobenzyl)-1-[2-(2,4-Difluorophenyl)ethyl]-3-hydroxy-2-oxopyrrolidine-3-carboxamide]
10 to 1000 | NC(=O)c1c[nH]c2ccc(N3CC[C@](O)(C(=O)NCc4cc(F)cc(Cl)c4)C3=O)cc12 [A238, 5-[(S)-3-(3-Chloro-5-fluorobenzylcarbamoyl)-3-hydroxy-2-oxopyrrolidin-1-yl]-1H-indole-3-carboxamide]
10 to 1000 | O=C1CCc2cc(N3CC[C@](O)(C(=O)NCc4ccc(Cl)cc4F)C3=O)ccc2N1 [A241, N-(4-Chloro-2-fluorobenzyl)-(S)-3-hydroxy-2-oxo-1-(2-oxo-1,2,3,4-tetrahydroquinolin-6-yl)-pyrrolidine-3-carboxamide]
10 to 1000 | O=C1CCc2cc(N3CC[C@](O)(C(=O)NCc4ccc(F)cc4Cl)C3=O)ccc2N1 [A242, N-(2-Chloro-4-fluorobenzyl)-(S)-3-hydroxy-2-oxo-1-(2-oxo-1,2,3,4-tetrahydroquinolin-6-yl)-pyrrolidine-3-carboxamide]
10 to 1000 | O=C1CCc2cc(N3CC[C@](O)(C(=O)NCc4c(F)ccc(F)c4Cl)C3=O)ccc2N1 [A244, N-(2-Chloro-3,6-difluorobenzyl)-(S)-3-hydroxy-2-oxo-1-(2-oxo-1,2,3,4-tetrahydroquinolin-6-yl)-pyrrolidine-3-carboxamide]
10 to 1000 | O=C1CCc2cc(N3CC[C@](O)(C(=O)NCc4cc(F)c(F)cc4F)C3=O)ccc2N1 [A245, N-(2,4,5-Trifluorobenzyl)-(S)-3-hydroxy-2-oxo-1-(2-oxo-1,2,3,4-tetrahydroquinolin-6-yl)-pyrrolidine-3-carboxamide]
10 to 1000 | O=C1CCc2cc(N3CC[C@](O)(C(=O)NCc4ccc(F)c(Cl)c4)C3=O)ccc2N1 [A247, N-(3-Chloro-4-fluorobenzyl)-(S)-3-hydroxy-2-oxo-1-(2-oxo-1,2,3,4-tetrahydroquinolin-6-yl)-pyrrolidine-3-carboxamide]
1000 to 10000 | NC(=O)CN1CCC(O)(C(=O)NCc2cc(F)cc(Cl)c2)C1=O (centres unmarked) [A248, N-(3-Chloro-5-fluorobenzyl)-1-carbamoylmethyl-3-hydroxy-2-oxopyrrolidine-3-carboxamide]
10 to 1000 | O=C1CCc2cc(N3CC[C@](O)(C(=O)NCc4c(F)cc(Cl)cc4F)C3=O)ccc2N1 [A249, N-(4-Chloro-2,6-difluorobenzyl)-(S)-3-hydroxy-2-oxo-1-(2-oxo-1,2,3,4-tetrahydroquinolin-6-yl)-pyrrolidine-3-carboxamide]
10 to 1000 | O=C1CCc2cc(N3CC[C@](O)(C(=O)NCc4c(F)ccc(Cl)c4F)C3=O)ccc2N1 [A250, N-(3-Chloro-2,6-difluorobenzyl)-(S)-3-hydroxy-2-oxo-1-(2-oxo-1,2,3,4-tetrahydroquinolin-6-yl)-pyrrolidine-3-carboxamide]
1000 to 10000 | O=C(NCc1cc(F)cc(F)c1)C1(O)CCCN(CC2CCC2)C1=O (centres unmarked) [A252, N-(3,5-Difluorobenzyl)-1-cyclobutylmethyl-3-hydroxy-2-oxopiperidine-3-carboxamide]
1000 to 10000 | O=C(NCc1cccc(F)c1)C1(O)CCCN(Cc2ccc(F)c(F)c2)C1=O (centres unmarked) [A253, N-(3-Fluorobenzyl)-1-(3,4-difluorobenzyl)-3-hydroxy-2-oxo-piperidine-3-carboxamide]
10 to 1000 | O=C(NCc1cccc(F)c1)[C@@]1(O)CCCN(Cc2cccc(F)c2F)C1=O [A254, N-(3-Fluorobenzyl)-(S)-1-(2,3-difluorobenzyl)-3-hydroxy-2-oxo-piperidine-3-carboxamide]
1000 to 10000 | O=C(NCc1ccc(F)cc1)[C@@]1(O)CCCN(Cc2cccc(F)c2F)C1=O [A255, N-(4-Fluorobenzyl)-(S)-1-(2,3-difluorobenzyl)-3-hydroxy-2-oxo-piperidine-3-carboxamide]
10 to 1000 | O=C(NCc1cccc(F)c1)[C@@]1(O)CCCN(CC2CCCCC2)C1=O [A256, N-(3-fluorobenzyl)-(S)-1-cyclohexylmethyl-3-hydroxy-2-oxopiperidine-3-carboxamide]
10 to 1000 | O=C(NCc1cc(F)cc(Cl)c1)C1(O)CCN(Cc2nc3ccccc3s2)C1=O (centres unmarked) [A270, N-(3-Chloro-5-fluorobenzyl)-1-benzothiazol-2-ylmethyl-3-hydroxy-2-oxopyrrolidine-3-carboxamide]
10 to 1000 | O=C(NCc1cc(F)cc(Cl)c1)C1(O)CCN(Cc2cc[nH]n2)C1=O (centres unmarked) [A277, N-(3-Chloro-5-fluorobenzyl)-3-hydroxy-2-oxo-1-(1H-pyrazol-3-ylmethyl)pyrrolidine-3-carboxamide]
10 to 1000 | CNC(=O)[C@H]1CC[C@H](CN2CCC(O)(C(=O)NCc3cc(F)cc(Cl)c3)C2=O)CC1 (some centres unmarked) [A278, N-(3-Chloro-5-fluorobenzyl)-3-hydroxy-1-(4-methylcarbamoyl-cyclohexylmethyl)-2-oxo-pyrrolidine-3-carboxamide]
